Measured values published in ChEMBL document CHEMBL3259563, “The discovery of potent and selective non-steroidal glucocorticoid receptor modulators, suitable for inhalation” (Bioorg Med Chem Lett, 2014).

Columns and labels:
[1] = Lipophilicity, log D of the compound at pH 7.4; type: physicochemical; conditions: buffer
[2] = molecular target: T1, Glucocorticoid receptor (Rattus norvegicus, UniProt P06536); test: Agonist activity at glucocorticoid receptor in rat PBMC assessed as inhibition of LPS-stimulated TNF-alpha release
T1 sequence (P06536 whole entry): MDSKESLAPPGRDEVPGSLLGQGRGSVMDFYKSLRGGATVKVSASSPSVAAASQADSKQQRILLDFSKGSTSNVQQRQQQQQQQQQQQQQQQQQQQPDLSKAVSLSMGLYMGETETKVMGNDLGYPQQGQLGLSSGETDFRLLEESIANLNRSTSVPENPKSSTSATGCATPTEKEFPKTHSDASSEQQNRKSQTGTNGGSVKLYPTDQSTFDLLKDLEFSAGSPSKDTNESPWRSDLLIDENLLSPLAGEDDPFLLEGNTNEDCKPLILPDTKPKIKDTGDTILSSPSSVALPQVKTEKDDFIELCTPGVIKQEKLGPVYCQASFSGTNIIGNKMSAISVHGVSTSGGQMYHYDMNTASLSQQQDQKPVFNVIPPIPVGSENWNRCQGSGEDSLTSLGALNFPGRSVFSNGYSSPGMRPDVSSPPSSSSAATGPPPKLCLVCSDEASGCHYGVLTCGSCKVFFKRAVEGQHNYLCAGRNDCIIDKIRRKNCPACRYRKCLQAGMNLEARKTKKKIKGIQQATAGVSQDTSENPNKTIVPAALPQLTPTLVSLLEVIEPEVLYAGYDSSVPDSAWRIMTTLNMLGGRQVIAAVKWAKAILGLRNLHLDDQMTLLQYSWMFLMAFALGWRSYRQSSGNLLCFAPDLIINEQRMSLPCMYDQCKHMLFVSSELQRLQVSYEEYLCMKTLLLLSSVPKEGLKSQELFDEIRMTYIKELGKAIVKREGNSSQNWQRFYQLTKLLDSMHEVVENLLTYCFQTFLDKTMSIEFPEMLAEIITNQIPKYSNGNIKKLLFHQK

[3] = molecular target: T2, Androgen receptor (Homo sapiens, UniProt P10275); test: Binding affinity to androgen receptor (unknown origin)
T2 sequence (P10275 whole entry): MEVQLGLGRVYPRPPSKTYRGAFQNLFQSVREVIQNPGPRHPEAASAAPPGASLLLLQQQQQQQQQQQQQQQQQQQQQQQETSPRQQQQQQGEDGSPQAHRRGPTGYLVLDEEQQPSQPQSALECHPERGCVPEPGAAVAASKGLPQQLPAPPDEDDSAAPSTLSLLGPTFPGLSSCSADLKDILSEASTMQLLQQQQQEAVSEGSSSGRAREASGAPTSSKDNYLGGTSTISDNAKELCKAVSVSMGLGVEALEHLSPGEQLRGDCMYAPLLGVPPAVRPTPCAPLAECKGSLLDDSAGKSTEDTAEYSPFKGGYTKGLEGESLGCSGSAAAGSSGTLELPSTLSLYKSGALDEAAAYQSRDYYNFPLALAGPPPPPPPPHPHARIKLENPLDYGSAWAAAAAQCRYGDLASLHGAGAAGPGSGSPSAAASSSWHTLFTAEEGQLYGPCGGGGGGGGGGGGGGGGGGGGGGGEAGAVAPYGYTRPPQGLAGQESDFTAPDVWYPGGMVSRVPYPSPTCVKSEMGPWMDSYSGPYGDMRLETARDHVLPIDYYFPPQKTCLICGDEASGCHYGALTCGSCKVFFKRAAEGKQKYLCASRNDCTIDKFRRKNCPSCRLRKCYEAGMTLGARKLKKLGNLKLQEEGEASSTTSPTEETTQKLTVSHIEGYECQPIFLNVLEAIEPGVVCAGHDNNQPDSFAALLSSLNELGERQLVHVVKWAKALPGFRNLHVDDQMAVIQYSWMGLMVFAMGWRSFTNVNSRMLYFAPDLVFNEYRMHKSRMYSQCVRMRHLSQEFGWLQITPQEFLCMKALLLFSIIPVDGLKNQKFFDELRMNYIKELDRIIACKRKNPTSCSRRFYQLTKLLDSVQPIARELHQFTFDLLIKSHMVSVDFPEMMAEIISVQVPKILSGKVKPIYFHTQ

[4] = Thermodynamic solubility of the crystalline compound in 0.1 M phosphate buffer at pH 7.4 at 25 degC after 24 hrs; type: physicochemical; conditions: read-out: Therm_solubility
[5] = system: Plasma; test: Fraction unbound in human plasma; type: ADME, cell-free
[6] = system: Hepatocyte; test: Intrinsic clearance in rat hepatocytes; type: ADME, cell-based
[7] = system: Hepatocyte; test: Intrinsic clearance in human hepatocytes; type: ADME, cell-based
[8] = molecular target: Cytochrome P450 2D6 (Homo sapiens, UniProt P10635); test: Inhibition of CYP2D6 (unknown origin); type: ADME
Chain of Cytochrome P450 2D6 (P10635 whole entry): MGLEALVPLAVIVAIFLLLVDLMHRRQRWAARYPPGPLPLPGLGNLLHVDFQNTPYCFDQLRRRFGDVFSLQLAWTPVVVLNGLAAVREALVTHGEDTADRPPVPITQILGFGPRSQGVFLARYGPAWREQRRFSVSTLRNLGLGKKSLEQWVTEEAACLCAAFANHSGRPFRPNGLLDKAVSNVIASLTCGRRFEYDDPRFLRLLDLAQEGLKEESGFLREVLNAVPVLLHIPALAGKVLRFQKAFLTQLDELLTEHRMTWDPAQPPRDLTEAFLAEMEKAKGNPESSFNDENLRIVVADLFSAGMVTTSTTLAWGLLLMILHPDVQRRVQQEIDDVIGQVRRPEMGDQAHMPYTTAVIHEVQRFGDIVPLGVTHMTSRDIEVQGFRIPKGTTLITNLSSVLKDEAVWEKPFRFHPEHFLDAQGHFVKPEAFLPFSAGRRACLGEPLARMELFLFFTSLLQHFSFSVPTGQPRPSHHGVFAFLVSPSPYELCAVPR

[9] = molecular target: T3, Cytochrome P450 1A2 (Homo sapiens, UniProt P05177); test: Inhibition of CYP1A2 (unknown origin); type: ADME
T3 sequence (P05177 whole entry): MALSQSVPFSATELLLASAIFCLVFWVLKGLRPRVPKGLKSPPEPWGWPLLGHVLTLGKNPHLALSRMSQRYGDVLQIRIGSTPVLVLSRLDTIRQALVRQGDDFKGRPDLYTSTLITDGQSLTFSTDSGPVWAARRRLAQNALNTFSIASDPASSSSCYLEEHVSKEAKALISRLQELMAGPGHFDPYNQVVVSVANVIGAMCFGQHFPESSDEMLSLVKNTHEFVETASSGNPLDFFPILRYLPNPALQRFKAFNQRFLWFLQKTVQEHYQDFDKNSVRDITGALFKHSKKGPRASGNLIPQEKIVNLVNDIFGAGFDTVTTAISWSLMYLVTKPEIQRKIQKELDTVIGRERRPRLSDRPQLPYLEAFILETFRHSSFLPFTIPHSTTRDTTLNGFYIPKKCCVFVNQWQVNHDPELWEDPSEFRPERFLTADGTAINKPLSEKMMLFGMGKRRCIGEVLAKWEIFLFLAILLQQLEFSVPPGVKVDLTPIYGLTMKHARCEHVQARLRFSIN

[10] = molecular target: Cytochrome P450 2C19 (Homo sapiens, UniProt P33261); test: Inhibition of CYP2C19 (unknown origin); type: ADME
Chain of Cytochrome P450 2C19 (P33261 whole entry): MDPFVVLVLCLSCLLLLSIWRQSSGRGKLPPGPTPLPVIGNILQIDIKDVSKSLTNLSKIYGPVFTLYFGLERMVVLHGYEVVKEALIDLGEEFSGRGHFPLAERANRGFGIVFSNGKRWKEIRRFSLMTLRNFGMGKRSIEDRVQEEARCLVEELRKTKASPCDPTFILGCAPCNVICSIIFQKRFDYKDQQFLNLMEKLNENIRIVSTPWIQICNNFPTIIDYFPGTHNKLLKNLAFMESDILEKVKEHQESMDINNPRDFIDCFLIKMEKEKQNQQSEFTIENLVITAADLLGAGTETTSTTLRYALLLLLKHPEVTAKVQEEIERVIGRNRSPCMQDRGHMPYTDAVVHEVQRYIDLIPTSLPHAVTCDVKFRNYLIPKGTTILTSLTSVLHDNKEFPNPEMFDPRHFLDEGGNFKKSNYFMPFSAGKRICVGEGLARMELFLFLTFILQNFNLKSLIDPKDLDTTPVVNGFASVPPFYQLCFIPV

[11] = molecular target: Cytochrome P450 3A4 (Homo sapiens, UniProt P08684); test: Inhibition of CYP3A4 (unknown origin); type: ADME
Chain of Cytochrome P450 3A4 (P08684 whole entry): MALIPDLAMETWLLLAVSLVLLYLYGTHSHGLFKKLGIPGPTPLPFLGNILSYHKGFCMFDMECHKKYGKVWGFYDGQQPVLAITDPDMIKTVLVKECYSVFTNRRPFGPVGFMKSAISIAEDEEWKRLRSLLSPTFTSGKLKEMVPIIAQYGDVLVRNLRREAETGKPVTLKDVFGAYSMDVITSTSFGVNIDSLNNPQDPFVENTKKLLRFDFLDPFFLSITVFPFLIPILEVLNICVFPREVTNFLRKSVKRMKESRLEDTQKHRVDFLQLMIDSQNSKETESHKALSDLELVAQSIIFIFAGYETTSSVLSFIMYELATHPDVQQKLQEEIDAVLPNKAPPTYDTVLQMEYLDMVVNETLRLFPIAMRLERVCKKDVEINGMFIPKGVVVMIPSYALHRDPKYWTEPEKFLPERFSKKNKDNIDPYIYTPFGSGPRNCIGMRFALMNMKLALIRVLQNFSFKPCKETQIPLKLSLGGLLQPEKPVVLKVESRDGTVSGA

[12] = molecular target: Cytochrome P450 2C9 (Homo sapiens, UniProt P11712); test: Inhibition of CYP2C9 (unknown origin); type: ADME
Chain of Cytochrome P450 2C9 (P11712 whole entry): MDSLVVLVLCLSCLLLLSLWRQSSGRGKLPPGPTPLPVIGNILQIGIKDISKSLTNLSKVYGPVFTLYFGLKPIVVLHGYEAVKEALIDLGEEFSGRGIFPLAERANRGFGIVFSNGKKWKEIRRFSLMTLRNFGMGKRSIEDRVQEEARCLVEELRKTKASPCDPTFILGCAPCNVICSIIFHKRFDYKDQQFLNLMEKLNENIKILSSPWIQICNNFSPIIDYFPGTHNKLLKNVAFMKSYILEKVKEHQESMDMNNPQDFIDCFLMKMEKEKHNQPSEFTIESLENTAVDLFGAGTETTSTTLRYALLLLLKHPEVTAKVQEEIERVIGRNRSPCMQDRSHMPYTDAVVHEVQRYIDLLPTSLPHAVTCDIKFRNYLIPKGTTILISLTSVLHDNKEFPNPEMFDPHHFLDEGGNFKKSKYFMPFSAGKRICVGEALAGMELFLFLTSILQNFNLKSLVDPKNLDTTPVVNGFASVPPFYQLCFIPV

[13] = system: Lung; test: Drug uptake in intratracheally dosed rat lung after 24 hrs; type: ADME, organism-based; conditions: in vivo, inhaled_or_intranasal
[14] = system: Rattus norvegicus; test: Antiinflammatory activity in rat assessed as inhibition of LPS-induced leukocyte influx to broncho-alveolar lavage fluid at 10 ug/kg, administered intratracheally 2 hrs prior to LPS challenge measured after 4 hrs relative to control; type: functional; conditions: inhaled or nasal
[15] = system: Rattus norvegicus; test: Antiinflammatory activity in rat assessed as inhibition of LPS-induced leukocyte influx to broncho-alveolar lavage fluid at 30 ug/kg, administered intratracheally 2 hrs prior to LPS challenge measured after 4 hrs relative to control; type: functional; conditions: inhaled or nasal
[16] = system: Rattus norvegicus; test: Antiinflammatory activity in rat assessed as inhibition of LPS-induced leukocyte influx to broncho-alveolar lavage fluid at 100 ug/kg, administered intratracheally 2 hrs prior to LPS challenge measured after 4 hrs relative to control; type: functional; conditions: inhaled or nasal
[17] = system: Rattus norvegicus; test: Antiinflammatory activity in rat assessed as inhibition of LPS-induced lung edema at 10 ug/kg, administered intratracheally 2 hrs prior to LPS challenge measured after 4 hrs relative to control; type: functional; conditions: inhaled or nasal
[18] = system: Rattus norvegicus; test: Antiinflammatory activity in rat assessed as inhibition of LPS-induced lung edema at 30 ug/kg, administered intratracheally 2 hrs prior to LPS challenge measured after 4 hrs relative to control; type: functional; conditions: inhaled or nasal
[19] = system: Rattus norvegicus; test: Antiinflammatory activity in rat assessed as inhibition of LPS-induced lung edema at 100 ug/kg, administered intratracheally 2 hrs prior to LPS challenge measured after 4 hrs relative to control; type: functional; conditions: inhaled or nasal
[20] = Thermodynamic solubility of the amorphous compound in 0.1 M phosphate buffer at pH 7.4 at 25 degC after 24 hrs; type: physicochemical; conditions: read-out: Therm_solubility
[21] = molecular target: hERG (KCNH2) (Homo sapiens, UniProt Q12809); test: Inhibition of human ERG channel at 50 uM
Chain of hERG (KCNH2) (Q12809 whole entry): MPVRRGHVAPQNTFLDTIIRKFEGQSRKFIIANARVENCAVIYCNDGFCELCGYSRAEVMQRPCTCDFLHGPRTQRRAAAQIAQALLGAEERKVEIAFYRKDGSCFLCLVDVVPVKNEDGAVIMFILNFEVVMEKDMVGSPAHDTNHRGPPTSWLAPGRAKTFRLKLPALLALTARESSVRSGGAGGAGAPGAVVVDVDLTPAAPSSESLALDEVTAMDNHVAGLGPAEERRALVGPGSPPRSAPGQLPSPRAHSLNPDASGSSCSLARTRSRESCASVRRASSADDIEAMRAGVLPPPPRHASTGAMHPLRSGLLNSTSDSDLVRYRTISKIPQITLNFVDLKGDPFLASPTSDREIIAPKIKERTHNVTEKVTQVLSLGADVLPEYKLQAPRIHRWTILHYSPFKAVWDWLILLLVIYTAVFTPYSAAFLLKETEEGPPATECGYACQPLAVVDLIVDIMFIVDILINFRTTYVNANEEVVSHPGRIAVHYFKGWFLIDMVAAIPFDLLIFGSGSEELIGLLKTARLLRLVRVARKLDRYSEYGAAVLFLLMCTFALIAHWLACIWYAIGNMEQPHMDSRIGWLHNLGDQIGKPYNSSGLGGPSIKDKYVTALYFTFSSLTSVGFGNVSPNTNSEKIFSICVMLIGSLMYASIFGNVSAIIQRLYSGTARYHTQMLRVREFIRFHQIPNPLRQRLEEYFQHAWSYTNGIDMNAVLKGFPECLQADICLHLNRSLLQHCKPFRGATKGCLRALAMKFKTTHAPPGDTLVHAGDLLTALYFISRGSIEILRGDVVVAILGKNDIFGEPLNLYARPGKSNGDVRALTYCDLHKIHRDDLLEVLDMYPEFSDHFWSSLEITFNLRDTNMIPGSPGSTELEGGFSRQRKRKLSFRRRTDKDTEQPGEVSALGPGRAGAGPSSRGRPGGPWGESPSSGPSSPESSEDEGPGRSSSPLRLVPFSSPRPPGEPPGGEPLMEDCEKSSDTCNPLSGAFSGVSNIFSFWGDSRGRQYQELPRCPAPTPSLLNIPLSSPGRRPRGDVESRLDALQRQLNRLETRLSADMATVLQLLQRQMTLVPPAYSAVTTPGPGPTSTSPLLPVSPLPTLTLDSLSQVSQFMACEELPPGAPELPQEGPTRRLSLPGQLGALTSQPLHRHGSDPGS

[22] = system: Mus musculus; test: Antiinflammatory activity in mouse acute cigarette smoke model assessed as inhibition of neutrophil influx to broncho-alveolar lavage fluid at 10 ug/kg, administered intratracheally 30 mins prior to first cigarette smoke challenge every day for 4 days measured after 24 hrs post last cigarette smoke challenge relative to control; conditions: inhaled or nasal
[23] = system: Mus musculus; test: Antiinflammatory activity in mouse acute cigarette smoke model assessed as inhibition of neutrophil influx to broncho-alveolar lavage fluid at 30 ug/kg, administered intratracheally 30 mins prior to first cigarette smoke challenge every day for 4 days measured after 24 hrs post last cigarette smoke challenge relative to control; conditions: inhaled or nasal
[24] = system: Mus musculus; test: Antiinflammatory activity in mouse acute cigarette smoke model assessed as inhibition of neutrophil influx to broncho-alveolar lavage fluid at 100 ug/kg, administered intratracheally 30 mins prior to first cigarette smoke challenge every day for 4 days measured after 24 hrs post last cigarette smoke challenge relative to control; conditions: inhaled or nasal
[25] = system: Mus musculus; test: Antiinflammatory activity in mouse acute cigarette smoke model assessed as inhibition of neutrophil influx to broncho-alveolar lavage fluid at 300 ug/kg, administered intratracheally 30 mins prior to first cigarette smoke challenge every day for 4 days measured after 24 hrs post last cigarette smoke challenge relative to control; conditions: inhaled or nasal

Q: What does the source list for Cc1cc(C)c(S(=O)(=O)N[C@@H](C)CNc2cccc3c2cnn3-c2ccc(F)cc2)c(C)c1?
A: logD [1]: 4.1; IC50 [2]: 0.0009 µM; IC50 [3]: > 1 µM; solubility thermodynamic at 24 h [4]: < 0.2 µM; Fu [5]: < 0.003%; CLH [6]: 13 µL/min; CLH [7]: 18 µL/min; IC50 [8]: > 20 µM; IC50 [9]: > 20 µM; IC50 [10]: > 20 µM; IC50 [11]: 10 µM; IC50 [12]: 7.9 µM; Drug uptake [13]: 50%; inhibition in vivo at 0.01 mg/kg [14]: 37%; inhibition in vivo at 0.03 mg/kg [15]: 90%; inhibition in vivo at 0.1 mg/kg [16]: 85%; inhibition in vivo at 0.01 mg/kg [17]: 32%; inhibition in vivo at 0.03 mg/kg [18]: 42%; inhibition in vivo at 0.1 mg/kg [19]: 56%; solubility thermodynamic at 24 h [20]: < 0.43 µM; inhibition at 50 µM [21]: < 25%; inhibition in vivo at 0.01 mg/kg [22]: 0%; inhibition in vivo at 0.03 mg/kg [23]: 36%; inhibition in vivo at 0.1 mg/kg [24]: 23%

Q: For CCCC1O[C@@H]2C[C@H]3[C@@H]4CCC5=CC(=O)C=C[C@]5(C)[C@H]4[C@@H](O)C[C@]3(C)[C@]2(C(=O)CO)O1 (stereo not given in full) [BUDESONIDE], which inhibition in vivo at 0.3 mg/kg [25] is on record?
A: 38%
